# Laboratory results taken from ChEMBL document CHEMBL1201862, “PubChem BioAssay data set” (2004).
#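 Briefly, cells in 96-well plates were exposed to five compound concentrations for 48 h, and endpoints were estimated by linear interpolation. Abbreviation: GI50, concentration required for 50% inhibition of growth.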 Activity calls are given as the source filed them. Rule as the data show it: active = GI50 up to about 1.1 µM and inactive = higher.
# How the values were obtained:
# Assay in all cases: NCI anticancer screen, dose series, 48 h
# BT-549 = tested on: BT-549
# CAKI-1 = tested on: CAKI-1
# COLO 205 = tested on: COLO 205
# DU-145 = tested on: DU-145
# EKVX = tested on: EKVX
# HCC 2998 = tested on: HCC 2998
# HCT-15 = tested on: HCT-15
# HOP-62 = tested on: HOP-62
# IGROV-1 = tested on: IGROV-1
# K562 = tested on: K562
# MDA-MB-231 = tested on: MDA-MB-231
# MDA-N = tested on: MDA-N
# MOLT-4 = tested on: MOLT-4
# NCI-H23 = tested on: NCI-H23
# OVCAR-8 = tested on: OVCAR-8
# SK-MEL-28 = tested on: SK-MEL-28
# SK-MEL-2 = tested on: SK-MEL-2
# SR = tested on: SR
# SW-620 = tested on: SW-620
# TK-10 = tested on: TK-10
Compound,GI50 (BT-549),GI50 (CAKI-1),GI50 (COLO 205),GI50 (DU-145),GI50 (EKVX),GI50 (HCC 2998),GI50 (HCT-15) [µM],GI50 (HOP-62),GI50 (IGROV-1),GI50 (K562),GI50 (MDA-MB-231),GI50 (MDA-N),GI50 (MOLT-4),GI50 (NCI-H23),GI50 (OVCAR-8),GI50 (SK-MEL-28),GI50 (SK-MEL-2),GI50 (SR),GI50 (SW-620),GI50 (TK-10)
CC(=O)C(CN1CCOCC1)C(c1ccccc1)c1c(O)c2ccccc2oc1=O (stereo unspecified),> 100 µM (inactive),> 100 µM (inactive),> 100 µM (inactive),> 100 µM (inactive),> 100 µM (inactive),> 100 µM (inactive),> 100,> 100 µM (inactive),> 100 µM (inactive),> 100 µM (inactive),83.9 µM (inactive),> 100 µM (inactive),> 100 µM (inactive),> 100 µM (inactive),> 100 µM (inactive),> 100 µM (inactive),> 100 µM (inactive),64.7 µM (inactive),> 100 µM (inactive),> 100 µM (inactive)
Cc1ccc(-c2cc(N)n(-c3nc4c(c(=O)n(C)c(=O)n4C)n3C)n2)cc1,> 100 µM (inactive),> 100 µM (inactive),> 100 µM (inactive),> 100 µM (inactive),62.2 µM (inactive),> 100 µM (inactive),> 100,21.7 µM (inactive),> 100 µM (inactive),> 100 µM (inactive),> 100 µM (inactive),> 100 µM (inactive),> 100 µM (inactive),67 µM (inactive),> 100 µM (inactive),23.1 µM (inactive),> 100 µM (inactive),> 100 µM (inactive),,> 100 µM (inactive)
Cc1ccc(/C=N/n2c(-c3ccc(C)cc3)n[nH]c2=O)cc1,90.4 µM (inactive),35.9 µM (inactive),> 100 µM (inactive),91.6 µM (inactive),> 100 µM (inactive),> 100 µM (inactive),66.7,61.9 µM (inactive),> 100 µM (inactive),96.4 µM (inactive),45.8 µM (inactive),80.7 µM (inactive),92.7 µM (inactive),29.2 µM (inactive),36.7 µM (inactive),> 100 µM (inactive),> 100 µM (inactive),25.4 µM (inactive),> 100 µM (inactive),60.8 µM (inactive)
C=C1CC[C@H](O)C(C)(C)[C@@H]1CC/C(C)=C/CC/C=C(\C)CC/C=C(\C)CCC=C(C)C,> 100 µM (inactive),> 100 µM (inactive),> 100 µM (inactive),> 100 µM (inactive),97.9 µM (inactive),76.6 µM (inactive),87.3,> 100 µM (inactive),> 100 µM (inactive),> 100 µM (inactive),> 100 µM (inactive),> 100 µM (inactive),> 100 µM (inactive),45.7 µM (inactive),57.8 µM (inactive),> 100 µM (inactive),46.7 µM (inactive),59.6 µM (inactive),> 100 µM (inactive),> 100 µM (inactive)
C=Cc1c(C)c2cc3nc(c4c5[nH]c(cc6nc(cc1[nH]2)C(C)=C6CC)c(C)c5C(=O)C4C(=O)OC)C(CCC(=O)OC)C3C (stereo unspecified),> 100 µM (inactive),> 100 µM (inactive),> 100 µM (inactive),40.4 µM (inactive),> 100 µM (inactive),59.7 µM (inactive),> 100,> 100 µM (inactive),> 100 µM (inactive),> 100 µM (inactive),> 100 µM (inactive),> 100 µM (inactive),,> 100 µM (inactive),> 100 µM (inactive),> 100 µM (inactive),> 100 µM (inactive),> 100 µM (inactive),> 100 µM (inactive),> 100 µM (inactive)
CC(=O)c1c(SCCN2CCCC2)n(-c2ccccc2)c(=S)n(-c2ccccc2)c1=O,14.5 µM (inactive),4.34 µM (inactive),1.76 µM (inactive),2.75 µM (inactive),17 µM (inactive),3.1 µM (inactive),4.01,22.4 µM (inactive),7.03 µM (inactive),2.72 µM (inactive),8.83 µM (inactive),7.03 µM (inactive),2.41 µM (inactive),17.4 µM (inactive),9.48 µM (inactive),6.11 µM (inactive),21.6 µM (inactive),2.28 µM (inactive),2.34 µM (inactive),3.64 µM (inactive)
COC[C@H]1C(=O)NCC(=O)N2N=CCC[C@H]2C(=O)N(O)[C@H](C)C(=O)O[C@@H](C(C)C)[C@H](NC(=O)[C@@](C)(O)[C@]2(O)CC[C@@H](CC(C)C)[C@H](C)O2)C(=O)N2NCCC[C@@H]2C(=O)N1O,0.0166 µM (active),0.133 µM (active),0.0175 µM (active),0.0343 µM (active),0.0292 µM (active),0.0169 µM (active),0.12,0.0175 µM (active),0.0157 µM (active),0.02 µM (active),0.0191 µM (active),0.018 µM (active),0.0164 µM (active),0.0163 µM (active),0.0185 µM (active),0.0174 µM (active),0.0164 µM (active),0.014 µM (active),0.0157 µM (active),0.0218 µM (active)
CN(CCCNC(=O)c1cn(C)c2c1ccc1cc(Cl)ccc12)CCCNC(=O)c1cn(C)c2c1ccc1cc(Cl)ccc12,8.99 µM (inactive),2.3 µM (inactive),1.47 µM (inactive),1.89 µM (inactive),2.33 µM (inactive),1.2 µM (inactive),1.78,1.65 µM (inactive),1.46 µM (inactive),1.97 µM (inactive),1.75 µM (inactive),2.23 µM (inactive),1.73 µM (inactive),3.91 µM (inactive),1.82 µM (inactive),1.73 µM (inactive),1.69 µM (inactive),2.54 µM (inactive),1.62 µM (inactive),2.47 µM (inactive)
CCCCCCNc1n[nH]c(=O)c2c1nnn2Cc1ccccc1,> 100 µM (inactive),> 100 µM (inactive),> 100 µM (inactive),> 100 µM (inactive),> 100 µM (inactive),> 100 µM (inactive),> 100,> 100 µM (inactive),,> 100 µM (inactive),> 100 µM (inactive),> 100 µM (inactive),> 100 µM (inactive),> 100 µM (inactive),> 100 µM (inactive),> 100 µM (inactive),> 100 µM (inactive),> 100 µM (inactive),,> 100 µM (inactive)
CC(=O)c1cc2c(s1)C(=O)c1ccccc1C2=O,1.62 µM (inactive),9.53 µM (inactive),4.72 µM (inactive),1.26 µM (inactive),4.39 µM (inactive),5.37 µM (inactive),0.61,2.44 µM (inactive),2.01 µM (inactive),2.09 µM (inactive),3.13 µM (inactive),1.63 µM (inactive),2.48 µM (inactive),0.457 µM (active),1.74 µM (inactive),8.05 µM (inactive),4.31 µM (inactive),5.66 µM (inactive),0.951 µM (active),5.47 µM (inactive)
